Test system: human precision cut liver slices (PCLS)
Test: RNA-Seq of PCLS, Nonstimulation Protocol (Non-stimulated + CRV vs Non-stimulated + Vehicle)
Assay type: cell-based
Procedure: PCLS were obtained from 5 human donors who underwent resection of liver cancer. Replicate slices were collected from healthy margins of the resections and cultured for 4 or 6 days depending on the experimental protocol. In the Nonstimulation Protocol slices were cultured for 6 days and treated for the entire period with DMSO vehicle or 5 μM CRV431. In the Stimulation Protocol slices were rested for 1 day and then administered the cytokines, TGFβ and PDGF-BB, for 3 days to stimulate inflammation and fibrosis. DMSO vehicle, CRV431 (1 and 5 μM), Alk5i (10 μM), obeticholic acid (5 μM), elafibranor (5 μM), resmetirom (5 μM), and Aramchol (5 μM) were administered individually as drug treatments in the Stimulation Protocol concurrent with TGFβ+PDGF-BB. Culture medium treatments were replaced daily.
(d) Gene expression by RNA-Seq. RNA sequencing of the complete transcriptome (30 million reads per sample) was conducted on vehicle and 5 μM CRV431 treatment groups from 3 donors both from the Nonstimulation and Stimulation Protocols. Data were analyzed by bioinformatics software programs to identify genes that were differentially expressed between vehicle and CRV431 treatments.
For the evaluation done for (d), 12 samples corresponding to 3 different donor slides which underwent 4 different treatments were studied. the comparisons carried out in this analysis are: (1) TGFb/PDGF+CRV vs TGFb/PDGF+Vehicle (V), and (2) Non-stimulated+CRV vs Non-stimulated+Vehicle.
Heatmaps were generated by plotting significant differently expressed genes for the comparison Non-stimulated+CRV and Non-stimulated+Vehicle (p-adjust<0.05, log fold change>0.5). First, the heatmap with the samples grouped by group (FIG. 7A) is shown in order to observe the different expression pattern present within the group (blue=vehicle; red=CRV). Then, the same significant genes arweree plotted into a heatmap (FIG. 7B), but the samples are now plotted grouped by donor in order to observe the differences between donors (blue=vehicle; red=CRV).
Significant differently expressed genes that were identified in the comparison Non-stimulated+CRV and Non-stimulated+Vehicle ([…], log fold change>0.5) are provided in Table 3. The fold changes shown are relative to the treatment CRV.
Nonstimulated+CRV431 vs Nonstimulated+Vehicle were then compared by donor. As shown in the PCA, there was a strong effect of the donor. Therefore, the analysis was repeated as in the previous comparison. […] In other words, there were at least 300 copies more in the treatment CRV than in the vehicle. After doing this selection individually for each donor, a venn diagram was plotted showing the overlapping between all three donors. […] So, there are at least 300 copies less in the treated group compared to the vehicle. After doing the selection individually for each donor, a venn diagram was plotted showing the overlapping between all three donors.

[1] = Non-stimulated + CRV vs Non-stimulated + Vehicle, 5 μM
[2] = absence of TGFβ+PDGF-BB, all donors

## CC[C@@H]1NC(=O)[C@H]([C@H](O)[C@H](C)CCCCCCNC(C)=O)N(C)C(=O)[C@H](C(C)C)N(C)C(=O)[C@H](CC(C)C)N(C)C(=O)[C@H](CC(C)C)N(C)C(=O)[C@@H](C)NC(=O)[C@H](C)NC(=O)[C@H](CC(C)C)N(C)C(=O)[C@H](C(C)C)NC(=O)[C@H](CC(C)C)N(C)C(=O)[C@@H](C)N(C)C1=O [CRV431]
[1]
  log2FoldChange, gene AC099668.1: 1.056
  log2FoldChange, gene ACOT9: 0.543
  log2FoldChange, gene ADGRD1: −1.126
  log2FoldChange, gene AFG1L: 1.327
  log2FoldChange, gene AGT: −0.627
  log2FoldChange, gene AKAP10: −1.249
  log2FoldChange, gene ALPK3: −0.621
  log2FoldChange, gene AP000347.1: 1.809
  log2FoldChange, gene AP003119.3: −0.67
  log2FoldChange, gene APBA1: −1.158
  log2FoldChange, gene AREG: 1.034
  log2FoldChange, gene ARVCF: −0.609
  log2FoldChange, gene C4B: −0.506
  log2FoldChange, gene CACUL1: −0.94
  log2FoldChange, gene CCDC149: 0.76
  log2FoldChange, gene CCNK: 0.545
  log2FoldChange, gene CD5L: 1.675
  log2FoldChange, gene CD180: 1.051
  log2FoldChange, gene CDH11: −0.915
  log2FoldChange, gene COL27A1: −0.545
  log2FoldChange, gene CXCL5: 0.663
  log2FoldChange, gene CXCL12: 0.623
  log2FoldChange, gene CYP3A4: −2.313
  log2FoldChange, gene CYP24A1: −1.499
  log2FoldChange, gene DAAM2: 1.498
  log2FoldChange, gene DANCR: 0.693
  log2FoldChange, gene DDX60: −0.739
  log2FoldChange, gene DGKD: −0.85
  log2FoldChange, gene DKK1: 1.939
  log2FoldChange, gene DNAJB9: 0.721
  log2FoldChange, gene DUS3L: 0.745
  log2FoldChange, gene ESM1: −1.157
  log2FoldChange, gene FANCI: −1.319
  log2FoldChange, gene FSTL1: −0.595
  log2FoldChange, gene GDPD5: −0.606
  log2FoldChange, gene GEM: −0.975
  log2FoldChange, gene GMPPA: 0.768
  log2FoldChange, gene GMPPB: 0.715
  log2FoldChange, gene GOLGA8A: −0.669
  log2FoldChange, gene GYG1: 0.94
  log2FoldChange, gene HID1: 0.716
  log2FoldChange, gene HLA-F: −0.727
  log2FoldChange, gene HM13: 0.528
  log2FoldChange, gene HOOK1: −0.998
  log2FoldChange, gene IFI6: −1.273
  log2FoldChange, gene IFI44L: −2.254
  log2FoldChange, gene IFIT2: −0.812
  log2FoldChange, gene ISLR: −0.815
  log2FoldChange, gene KAT14: 0.874
  log2FoldChange, gene KIAA0513: −0.98
  log2FoldChange, gene KRT7: 0.563
  log2FoldChange, gene KRT81: 1.137
  log2FoldChange, gene L3MBTL1: −2.03
  log2FoldChange, gene LGALS3BP: −0.556
  log2FoldChange, gene LILRB4: 0.909
  log2FoldChange, gene LILRB5: 1.075
  log2FoldChange, gene MANF: 0.682
  log2FoldChange, gene MEG3: −0.682
  log2FoldChange, gene MIR194-2HG: −2.973
  log2FoldChange, gene MLLT10: −1.19
  log2FoldChange, gene MPEG1: 0.584
  log2FoldChange, gene MS4A4A: 0.735
  log2FoldChange, gene MT-CO1: −1.083
  log2FoldChange, gene MTCO1P12: −1.183
  log2FoldChange, gene NCOA3: −1.438
  log2FoldChange, gene NOTCH3: −0.564
  log2FoldChange, gene NREP: −0.638
  log2FoldChange, gene NUCB2: 0.851
  log2FoldChange, gene NUGGC: 1.136
  log2FoldChange, gene NUMA1: −0.537
  log2FoldChange, gene PALM2-AKAP2: −1.035
  log2FoldChange, gene PAN2: 0.742
  log2FoldChange, gene PDE4C: −0.669
  log2FoldChange, gene PDZD2: −1.468
  log2FoldChange, gene PEG10: 1.463
  log2FoldChange, gene PFKFB3: −0.545
  log2FoldChange, gene PGM3: 0.751
  log2FoldChange, gene PLTP: −0.584
  log2FoldChange, gene PLXNA2: 1.719
  log2FoldChange, gene POU2F2: 2.856
  log2FoldChange, gene R3HDM2: −0.678
  log2FoldChange, gene RAD51D: 1.387
  log2FoldChange, gene RARRES2: −0.766
  log2FoldChange, gene RFX1: −1.495
  log2FoldChange, gene SCRIB: 0.661
  log2FoldChange, gene SEC11C: 0.844
  log2FoldChange, gene SEC24D: 0.58
  log2FoldChange, gene SEC61B: 0.602
  log2FoldChange, gene SELL: 2.035
  log2FoldChange, gene SERPINB2: 1.255
  log2FoldChange, gene SIPA1L3: −0.652
  log2FoldChange, gene SKI: −0.931
  log2FoldChange, gene SLC2A1: −0.635
  log2FoldChange, gene SLC29A1: −0.53
  log2FoldChange, gene SNHG3: 0.665
  log2FoldChange, gene SOWAHC: −0.601
  log2FoldChange, gene SPCS3: 0.715
  log2FoldChange, gene SRGAP2B: −0.729
  log2FoldChange, gene SSR4: 0.564
  log2FoldChange, gene STX16: 0.577
  log2FoldChange, gene SYNGAP1: −1.718
  log2FoldChange, gene SYNRG: −0.74
  log2FoldChange, gene TMEM154: −1.351
  log2FoldChange, gene TNFSF14: −0.681
  log2FoldChange, gene TRPV6: 0.83
  log2FoldChange, gene TTLL3: −0.579
  log2FoldChange, gene UHRF2: −0.778
  log2FoldChange, gene UNKL: −0.916
  log2FoldChange, gene WNK1: −0.698
  log2FoldChange, gene XAF1: −0.725
[2]
  fold change in RNA, DKK1: +3.8 fold
  fold change in RNA, ESM1: −2.2 fold
  fold change in RNA, IFI44L: −4.8 fold
  fold change in RNA, NCOA3: −2.7 fold
  fold change in RNA, mIR-194-2: −7.9 fold
